Source: US20060223837A1 (priority 2005, published 2006)

Legend:
[1] = molecular target: T1, human VR1 (Homo sapiens, UniProt Q8NER1); assay: Human VR1 functional assay (FLIPR intracellular Ca2+); type: cell-based; conditions: for inhibition at 10 µM: read-out: h % I (10 μM); for Emax at 12 µM: read-out: % Response Relative to EC80 of Capsaicin (12 μM); for IC50: antagonism of capsaicin-induced Ca2+ increase, read-out: h IC50; for EC50: agonist-induced Ca2+ increase, read-out: h EC50
T1 construct: expressed in transfected cells; host or cells: HEK293
T1 sequence (Q8NER1 whole entry): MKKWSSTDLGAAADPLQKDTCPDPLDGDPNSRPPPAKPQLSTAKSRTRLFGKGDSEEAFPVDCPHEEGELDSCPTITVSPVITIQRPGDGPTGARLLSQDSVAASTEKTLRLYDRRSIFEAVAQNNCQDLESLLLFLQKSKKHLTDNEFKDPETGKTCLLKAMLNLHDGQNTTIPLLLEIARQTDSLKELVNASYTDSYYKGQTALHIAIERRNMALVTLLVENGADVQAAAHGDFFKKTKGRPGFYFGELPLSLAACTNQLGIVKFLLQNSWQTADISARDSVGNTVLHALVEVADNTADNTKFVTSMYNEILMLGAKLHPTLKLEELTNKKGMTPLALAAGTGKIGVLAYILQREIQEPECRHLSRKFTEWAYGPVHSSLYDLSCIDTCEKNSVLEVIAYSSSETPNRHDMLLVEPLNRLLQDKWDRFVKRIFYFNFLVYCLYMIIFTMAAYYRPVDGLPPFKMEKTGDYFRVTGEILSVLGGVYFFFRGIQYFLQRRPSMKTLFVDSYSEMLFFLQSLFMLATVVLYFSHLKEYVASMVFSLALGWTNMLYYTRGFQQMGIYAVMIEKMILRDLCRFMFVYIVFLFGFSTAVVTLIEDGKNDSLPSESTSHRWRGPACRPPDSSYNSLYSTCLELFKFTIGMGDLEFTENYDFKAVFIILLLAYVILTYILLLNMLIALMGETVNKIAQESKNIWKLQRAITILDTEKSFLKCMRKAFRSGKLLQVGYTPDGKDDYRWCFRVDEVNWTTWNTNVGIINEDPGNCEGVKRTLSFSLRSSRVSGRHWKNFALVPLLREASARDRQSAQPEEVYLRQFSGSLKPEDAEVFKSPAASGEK
Method: The functional activity of the test compounds was determined by measuring changes in intracellular calcium concentration using a Ca^2+-sensitive fluorescent dye and FLIPR™ technology. Increases in Ca^2+ concentration were readily detected upon challenge with capsaicin. HEK293 Cells expressing human VR1 were grown on poly-D-lysine coated 384 well black-walled plates (BD 354663) and 1 day later loaded with Calcium 3 Dye for 35 min at 37 C, 5% CO2 and then for 25 min at room temperature, and subsequently tested for agonist-induced increases in intracellular Ca^2+ levels using FLIPR™ technology. Cells were challenged with test compounds (at varying concentrations, which are indicated in parentheses in the heading of the table below) and intracellular Ca^2+ was measured for 5 min prior to the addition of capsaicin to all wells to achieve a final concentration of eliciting an approximate 80% maximal response ([…]). EC50 or IC50 values were determined from dose-response studies. Curves were generated using the average of quadruplicate wells for each data point.

[2] = molecular target: T1, human VR1; assay: Human VR1 [3H]RTX binding assay; conditions: for Ki: [3H]RTX binding, HEK293 membranes; for h Binding % I (1 μM) / inhibition at 1 µM: inhibition of [3H]RTX binding at 1 μM; for inhibition at 1 µM: read-out: h Binding % I (1 μM)
Method: Compounds of the present invention were tested for their ability to inhibit the binding of tritiated resiniferatoxin ([^3H] RTX) to human VR1 receptors in a [^3H] RTX binding assay, as previously described (Zhang, Sui-Po. Improved ligand binding assays for vanilloid receptors. PCT Int. Appl. (2002), WO 0233411 A1 20020425 AN 2002:315209; Grant, Elfrida R., Dubin, Adrienne E., Zhang, Sui-Po, Zivin, Robert A., Zhong, Zhong Simultaneous intracellular calcium and sodium flux imaging in human VR1-transfected human embryonic kidney cells: a method to resolve ionic dependence of VR1-mediated cell death. J. Pharmacol. Exp. ther., 2002, 300(1), 9-17.) HEK293 cells were transfected with human VR1 and washed with Hank's balanced Salt Solution, dissociated with cell dissociation buffer (Sigma), and then centrifuged at 1000× g for 5 min. Cell pellets were homogenized in cold 20 mM HEPES buffer (pH 7.4), containing 5.8 mM NaCl, 320 mM sucrose, 2 mM MgCl2, 0.75 CaCl2 and 5 mM KCl and centrifuged at 1000× g for 15 min. The resultant supernate was then centrifuged at 40000× g for 15 min. The pelleted membranes were stored in a freezer at −80 C.
Approximately 120 μg protein/ml from membranes were incubated with indicated concentrations of [^3H]RTX in 0.5 ml of the HEPES buffer (pH 7.4) containing 0.25 mg/mL fatty acid-free bovine serum albumin at 37 C for 60 min. After cooling the reaction mixture to 4 C, 0.1 mg (x-acid glycoprotein was added to each sample, which was incubated at 4 C for 15 min and then centrifuged at 18500× g for 15 min. The tip of the microcentrifuge tube containing the pellet was cut off. Bound radioactivity was quantified by scintillation counting. Non-specific binding was assessed in the presence of 200 nM unlabeled resiniferatoxin.
Data were calculated according to the equation: % inhibtion=(total binding−binding)*100/(total binding−non specific binding).
Ki values were calculated based on an average of duplicate measurements using a GraphPad Prism program.

[3] = inhibition of capsaicin response

Structure (SMILES) | Ki [2] | h Binding % I (1 μM) [2] | inhibition at 1 µM [2] | Emax at 12 µM ([1]; agonist response) | further results
CC(C)(C)c1ccc(CCC(=O)Nc2ccc(-c3ccccc3O)cc2)cc1 [Cpd 10] | 50 nM | 89% |  |  | % Response Relative to EC80 of Capsaicin (12 μM) ([1]; agonist response): 67%; h % I (10 μM) [1, 3]: 40%
CC(C)(C)c1ccc(CCC(=O)Nc2ccc(-c3cccc([N+](=O)[O-])c3)cc2)cc1 [Cpd 11] | 145 nM |  | 84% |  | inhibition at 10 µM [1, 3]: 36%
CC(C)(C)c1ccc(CCC(=O)Nc2ccc(-c3cccc(C(F)(F)F)c3)cc2)cc1 [Cpd 12] |  | 36% |  |  | % Response Relative to EC80 of Capsaicin (12 μM) ([1]; agonist response): 47%
CC(=O)c1cccc(-c2ccc(NC(=O)CCc3ccc(C(C)(C)C)cc3)cc2)c1 [Cpd 13] |  | 35% |  |  | h % I (10 μM) [1, 3]: 35%
CC(C)(C)c1ccc(CCC(=O)Nc2ccc(-c3cccc(Cl)c3)cc2)cc1 [Cpd 14] | 4620 nM |  | 55% | 53% | 
CC(C)(C)c1ccc(CCC(=O)Nc2ccc(-c3cccc(F)c3)cc2)cc1 [Cpd 15] |  | 41% |  |  | % Response Relative to EC80 of Capsaicin (12 μM) ([1]; agonist response): 80%
CC(=O)Nc1cccc(-c2ccc(NC(=O)CCc3ccc(C(C)(C)C)cc3)cc2)c1 [Cpd 16] | 169 nM |  | 68% | 101% | Emax at 6 µM ([1]; agonist response, 6 μM, read-out: % Response Relative to EC80 of Capsaicin (6 μM)): 63%
CC(C)(C)c1ccc(CCC(=O)Nc2ccc(-c3cccc(N)c3)cc2)cc1 [Cpd 17] | 48 nM |  | 90% | 67% | 
CC(C)(C)c1ccc(CCC(=O)Nc2ccccc2-c2cccc(CO)c2)cc1 [Cpd 19] |  | 1% |  |  | h % I (10 μM) [1, 3]: 20%
CC(C)(C)c1ccc(CCC(=O)Nc2ccccc2-c2ccc(CO)cc2)cc1 [Cpd 20] |  |  | 1% |  | IC50 [1]: 2080 nM; inhibition at 10 µM [1, 3]: 70%
CC(C)(C)c1ccc(CCC(=O)Nc2cccc(-c3cccc(CO)c3)c2)cc1 [Cpd 21] |  | 1% |  |  | % Response Relative to EC80 of Capsaicin (12 μM) ([1]; agonist response): 45%
CC(C)(C)c1ccc(CCC(=O)Nc2cccc(-c3ccc(CO)cc3)c2)cc1 [Cpd 22] |  | 1% |  |  | h % I (10 μM) [1, 3]: 1%
CC(C)(C)c1ccc(CCC(=O)Nc2ccc(-c3ccc(CO)cc3)cc2)cc1 [Cpd 24] | 84 nM |  | 87% | 68% | inhibition at 10 µM [1, 3]: 32%
CC(C)(C)c1ccc(CCC(=O)Nc2ccc(-c3cccc(OC(F)(F)F)c3)cc2)cc1 [Cpd 26] |  | 10% |  |  | % Response Relative to EC80 of Capsaicin (12 μM) ([1]; agonist response): 65%
Cc1cccc(-c2ccc(NC(=O)CCc3ccc(C(C)(C)C)cc3)cc2)c1 [Cpd 28] |  | 48% |  |  | % Response Relative to EC80 of Capsaicin (12 μM) ([1]; agonist response): 81%
COC(=O)c1cccc(-c2ccc(NC(=O)CCc3ccc(C(C)(C)C)cc3)cc2)c1 [Cpd 29, 4′-[3-(4-tert-butyl-phenyl)-propionylamino]-biphenyl-3-carboxylic acid methyl ester] |  |  | 43% |  | inhibition at 10 µM [1, 3]: 36%
CC(C)(C)c1ccc(CCC(=O)Nc2ccc(-c3cccc(C(=O)O)c3)cc2)cc1 [Cpd 30, 4′-[3-(4-tert-butyl-phenyl)-propionylamino]-biphenyl-3-carboxylic acid] |  |  | 2% | 94% | EC50 [1]: 1420 nM
CC(C)(C)c1ccc(CCC(=O)Nc2ccc(-c3cccc(C(N)=O)c3)cc2)cc1 [Cpd 31, 4′-[3-(4-tert-butyl-phenyl)-propionylamino]-biphenyl-3-carboxylic acid amide] |  |  | 4% |  | inhibition at 10 µM [1, 3]: 28%
CN(C)C(=O)c1cccc(-c2cccc(NC(=O)CCc3ccc(C(C)(C)C)cc3)c2)c1 [Cpd 34] |  | 17% |  |  | h % I (10 μM) [1, 3]: 14%
CC(C)(C)c1ccc(/C=C/C(=O)Nc2ccc(-c3cccc(C(N)=O)c3)cc2)cc1 [Cpd 35, 4′-[3-(4-tert-butyl-phenyl)-acryloylamino]-biphenyl-3-carboxylic acid amide] |  |  | 30% | 53% | 

Structure (SMILES) | Ki [2] | h Binding % I (1 μM) [2] | inhibition at 1 µM [2] | Emax at 12 µM ([1]; agonist response) | further results
CN(C)C(=O)c1cccc(-c2ccc(NC(=O)/C=C/c3ccc(C(C)(C)C)cc3)cc2)c1 [Cpd 36] |  | 16% |  |  | % Response Relative to EC80 of Capsaicin (12 μM) ([1]; agonist response): 55%
CC(C)(C)c1ccc(CCC(=O)Nc2cccc(-c3cccc(C(N)=O)c3)c2)cc1 [Cpd 37] |  | 21% |  |  | h % I (10 μM) [1, 3]: 16%
CN(C)C(=O)c1cccc(-c2cccc(NC(=O)CCc3ccc(C(C)(C)C)cc3)c2)c1 [Cpd 38] |  | 1% |  |  | h % I (10 μM) [1, 3]: 17%
CN(C)C(=O)c1cccc(-c2ccc(NC(=O)CCc3ccc(C(C)(C)C)cc3)cc2)c1 [Cpd 39] |  | 5% |  |  | h % I (10 μM) [1, 3]: 24%
CC(C)(C)c1ccc(CCC(=O)Nc2ccc(-c3cccc(NS(C)(=O)=O)c3)cc2)cc1 [Cpd 40] |  | 41% |  |  | % Response Relative to EC80 of Capsaicin (12 μM) ([1]; agonist response): 74%
CC(C)(C)OC(=O)Nc1cccc(-c2ccc(NC(=O)CCc3ccc(C(C)(C)C)cc3)cc2)c1 [Cpd 41] | 109 nM |  | 78.8% | 43% | inhibition at 10 µM [1, 3]: 30%
CC(C)(C)OC(=O)NCc1cccc(-c2ccc(NC(=O)CCc3ccc(C(C)(C)C)cc3)cc2)c1 [Cpd 42] |  | 1.1% |  |  | h % I (10 μM) [1, 3]: 9%
CC(C)(C)c1ccc(CCC(=O)Nc2ccc(-c3cccc(CN)c3)cc2)cc1 [Cpd 43] |  |  | 23% | 104% | EC50 [1]: 1660 nM
CC(C)(C)c1ccc(CCC(=O)Nc2ccc(-c3cccc(NC(N)=O)c3)cc2)cc1 [Cpd 44] | 52 nM |  | 97% | 102% | EC50 [1]: 289 nM
CC(C)(C)c1ccc(CCC(=O)Nc2ccc(-c3cccc(OCCN)c3)cc2)cc1 [Cpd 45] |  |  | 16% | 84% | EC50 [1]: 2400 nM
CC(C)(C)c1ccc(CCC(=O)Nc2ccc(-c3cccc(NCCO)c3)cc2)cc1 [Cpd 46] |  |  | 34% |  | IC50 [1]: 4770 nM; inhibition at 10 µM [1, 3]: 53%
NC(=O)c1cccc(-c2ccc(NC(=O)CCc3ccc(C(F)(F)F)cc3)cc2)c1 [Cpd 48] |  | 2.1% |  |  | % Response Relative to EC80 of Capsaicin (12 μM) ([1]; agonist response): 57%
CC(=O)Nc1cccc(-c2ccc(NC(=O)CCc3ccc(C(C)(C)C)cc3)cc2C)c1 [Cpd 55] | 184 nM |  | 66% | 69% | 
CC(=O)Nc1cccc(-c2ccc(NC(=O)CCc3ccc(C(C)(C)C)cc3)cc2F)c1 [Cpd 57] | 266 nM |  | 66% | 84% | 
Cc1cc(-c2cccc(O)c2)ccc1NC(=O)CCc1ccc(C(C)(C)C)cc1 [Cpd 58] |  | 43% |  |  | % Response Relative to EC80 of Capsaicin (6 μM) ([1]; agonist response, 6 μM): 19%
Cc1cc(NC(=O)CCc2ccc(C(C)(C)C)cc2)ccc1-c1cccc(O)c1 [Cpd 59, 3-(4-tert-butyl-phenyl)-N-(3′-hydroxy-2-methyl-biphenyl-4-yl)-propionamide] | 10.7 nM |  | 103% |  | IC50 [1]: 490 nM; inhibition at 10 µM [1, 3]: 101%
CC(C)(C)c1ccc(CCC(=O)Nc2ccc(-c3cccc(O)c3)cc2F)cc1 [Cpd 60] | 541 nM |  | 52% | 84% | 
CC(C)(C)c1ccc(CCC(=O)Nc2ccc(-c3cccc(O)c3)c(F)c2)cc1 [Cpd 61] | 53.3 nM |  | 96% | 68% | 
CC(C)(C)c1ccc(CCC(=O)Nc2ccc(-c3cccc(O)c3)cc2)cc1 [Cpd 62] |  | 23% |  |  | h % I (5 μM) ([1]; inhibition of capsaicin response, 5 μM): 16%
CC(C)(C)c1ccc(CCC(=O)Nc2ccc(-c3cccc(O)c3)cc2)s1 [Cpd 65, 3-(5-tert-butyl-thiophen-2-yl)-N-(3′-hydroxy-biphenyl-4-yl)-propionamide] | 168 nM |  | 77% | 87% | 
